Among the data in ChEMBL document CHEMBL5143690, “Identification of nitrofuranylchalcone tethered benzoxazole-2-amines as potent inhibitors of drug resistant Mycobacterium tuberculosis demonstrating bactericidal efficacy” (Bioorg Med Chem, 2022) are MIC values, retold here.

In general, MIC refers to the least concentration at which growth counts as inhibited.

Values after ≈ are worked out from the molar mass of the structure shown. A value given as a limit tells only on which side of the number the result lay.

Common to all, as to type: functional
In assay [1] the test system is Mycobacterium tuberculosis. The assay is described as follows: Antimycobacterial activity against Mycobacterium tuberculosis H37Rv ATCC 27294 assessed as inhibition of bacterial growth measured after 7 days by resazurin microtitre assay. The conditions noted are these: H37Rv ATCC 27294, 168 h, time 7 day.
The test system of assay [2] is Escherichia coli. The assay is described as follows: Antibacterial activity against Escherichia coli ATCC 25922 assessed as reduction in bacterial growth incubated for 16 to 18 hrs by microtiter plate assay. The following applies: time 16-18 hrs.
The subject of assay [3] is Klebsiella pneumoniae. In words: Antibacterial activity against Klebsiella pneumoniae BAA 1705 assessed as reduction in bacterial growth incubated for 16 to 18 hrs by microtiter plate assay. The conditions noted are these: time 16-18 hrs.
The subject of assay [4] is Mycobacteroides abscessus. In words: Antimycobacterial activity against Mycobacterium abscessus ATCC 19977 assessed as inhibition of bacterial growth after 48 hrs by resazurin microtitre assay. A general note: Resazurin is reduced to fluorescent resorufin, in cell work by metabolically active cells.
The test system of assay [5] is Staphylococcus aureus. In words: Antibacterial activity against Staphylococcus aureus ATCC 29213 assessed as reduction in bacterial growth incubated for 16 to 18 hrs by microtiter plate assay. The conditions noted are these: time 16-18 hrs.
Assay [6] relates to Acinetobacter baumannii. The assay is described as follows: Antibacterial activity against Acinetobacter baumannii BAA 1605 assessed as reduction in bacterial growth incubated for 16 to 18 hrs by microtiter plate assay. The following applies: time 16-18 hrs.
The test system of assay [7] is Pseudomonas aeruginosa. The assay is described as follows: Antibacterial activity against Pseudomonas aeruginosa ATCC 27853 assessed as reduction in bacterial growth incubated for 16 to 18 hrs by microtiter plate assay. The conditions noted are these: time 16-18 hrs.
The test system of assay [8] is Mycolicibacterium fortuitum. The assay is described as follows: Antimycobacterial activity against Mycobacterium fortuitum ATCC 6841 assessed as inhibition of bacterial growth after 48 hrs by resazurin microtitre assay.
Assay [9] deals with Mycobacteroides chelonae. In words: Antimycobacterial activity against Mycobacterium chelonae ATCC 6841 assessed as inhibition of bacterial growth after 48 hrs by resazurin microtitre assay.

For the compound `NNC(=O)c1ccncc1` [ISONIAZID], the MIC in [1] amounted to 0.03 µg/mL (≈ 0.219 µM).
As to `COc1ccc(/C=C/C(=O)c2ccc(Nc3nc4ccccc4o3)cc2)c(OC)c1`, the MIC in [2], in [3], in assay [1], in [4], in assay [5] and in [6] was more than 64 µg/mL throughout. Moreover, the MIC in assay [7], in assay [8] and in assay [9] was more than 64 µg/mL in each case.
As for `COc1cc(C2CC(c3ccccc3)=NN2C(C)=O)cc2nc(N)oc12` (stereo not given), the MIC in assay [1] came to 0.625 µg/mL (≈ 1.78 µM).
With `COc1cc(/C=C/C(=O)c2ccc(Nc3nc4cc(Cl)ccc4o3)cc2)cc(OC)c1OC`, the MIC in assay [2] is more than 64 µg/mL; in assay [3], more than 64 µg/mL; in assay [1] it was 8 µg/mL (≈ 17.2 µM); in [4], more than 64 µg/mL; in assay [5] it was more than 64 µg/mL; in [6] it was more than 64 µg/mL. For the same compound, the MIC in [7], in [8] and in assay [9] was more than 64 µg/mL throughout.
As to `CC(=O)N1N=C(c2ccccc2)CC1c1cc(Cl)c2oc(S)nc2c1` (stereo not given), the MIC in assay [1] is 1.25 µg/mL (≈ 3.36 µM).
On to `COc1ccc(C(=O)/C=C/c2cc(OC)c(OC)c(OC)c2)cc1Nc1nc2ccccc2o1`, for which the MIC was more than 64 µg/mL in [2]; more than 64 µg/mL in assay [3]; 64 µg/mL (≈ 139 µM) in assay [1]; more than 64 µg/mL in assay [4]; more than 64 µg/mL in assay [5]; more than 64 µg/mL in assay [6]. Moreover, the MIC in assay [7], in assay [8] and in assay [9] was more than 64 µg/mL each time.
For the compound `CC(=O)N1N=C(c2ccc3oc(-c4ccc(O)cc4)nc3c2)CC1c1cccs1` (stereo not given), in assay [1], the MIC is 0.8 µg/mL (≈ 1.98 µM).
Turning to `O=C(/C=C/c1ccc(Cl)cc1)c1ccc(Nc2nc3ccccc3o2)cc1`, the MIC in assay [2] was more than 64 µg/mL; in [3] it was more than 64 µg/mL; in assay [1], 64 µg/mL (≈ 171 µM); in [4], more than 64 µg/mL; in assay [5], more than 64 µg/mL; in assay [6], more than 64 µg/mL. For the same compound, the MIC in assay [7], in assay [8] and in [9] was more than 64 µg/mL in each case.
As to `COc1cc(/C=C/C(=O)c2ccc(Nc3nc4cc(C)ccc4o3)cc2)cc(OC)c1OC`, the MIC in [2] is more than 64 µg/mL; in assay [3] it was more than 64 µg/mL; in [1], 16 µg/mL (≈ 36 µM); in assay [4] it was more than 64 µg/mL; in [5] it was more than 64 µg/mL; in assay [6] it was more than 64 µg/mL. Besides, the MIC in assay [7], in assay [8] and in assay [9] was more than 64 µg/mL in each case.
For `COc1cc(OC)c(OC)cc1/C=C/C(=O)c1ccc(Nc2nc3ccccc3o2)cc1`, the MIC in assay [2] was more than 64 µg/mL; in assay [3] it was more than 64 µg/mL; in assay [1] it was 16 µg/mL (≈ 37.2 µM); in [4], more than 64 µg/mL; in assay [5] it was more than 64 µg/mL; in [6], more than 64 µg/mL. The minimal inhibitory concentration (MIC) in assay [7], in [8] and in assay [9] was more than 64 µg/mL each time.
For the compound `Cc1ccc(/C=C/C(=O)c2ccc(Nc3nc4ccccc4o3)cc2)cc1`, the minimal inhibitory concentration (MIC) in [2], in assay [3], in assay [1], in assay [4], in [5] and in assay [6] was more than 64 µg/mL each time. In addition, the MIC in assay [7], in [8] and in assay [9] was more than 64 µg/mL in each case.
As for `C[C@H]1COc2c(N3CCN(C)CC3)c(F)cc3c(=O)c(C(=O)O)cn1c23.C[C@H]1COc2c(N3CCN(C)CC3)c(F)cc3c(=O)c(C(=O)O)cn1c23.O` [LEVOFLOXACIN], the MIC was determined as 0.0078 µg/mL in assay [2], 64 µg/mL in assay [3] and 0.125 µg/mL in [5].
Take `O=C(/C=C/c1ccc(Cl)cc1Cl)c1ccc(Nc2nc3ccccc3o2)cc1`: the MIC in assay [2], in assay [3], in assay [1], in assay [4], in assay [5] and in [6] was more than 64 µg/mL each time. Besides, the MIC in assay [7], in assay [8] and in assay [9] was more than 64 µg/mL each time.
Take `COc1ccc(/C=C/C(=O)c2ccc(Nc3nc4ccccc4o3)cc2)cc1OC`: the MIC in assay [2] was more than 64 µg/mL; in assay [3] it was more than 64 µg/mL; in assay [1], 32 µg/mL (≈ 79.9 µM); in [4], more than 64 µg/mL; in [5], more than 64 µg/mL; in [6], more than 64 µg/mL. Besides, the MIC in assay [7], in assay [8] and in assay [9] was more than 64 µg/mL each time.
On to `O=C(/C=C/c1ccccc1)c1ccc(Nc2nc3ccccc3o2)cc1`, for which the MIC is more than 64 µg/mL in assay [2]; more than 64 µg/mL in assay [3]; 16 µg/mL (≈ 47 µM) in assay [1]; more than 64 µg/mL in [4]; more than 64 µg/mL in assay [5]; more than 64 µg/mL in [6]. The minimal inhibitory concentration (MIC) in assay [7], in assay [8] and in assay [9] was more than 64 µg/mL each time.
For `O=C(/C=C/c1ccc(Br)cc1)c1ccc(Nc2nc3ccccc3o2)cc1`, the MIC in assay [2] was more than 64 µg/mL; in assay [3], more than 64 µg/mL; in assay [1], 64 µg/mL (≈ 153 µM); in assay [4] it was more than 64 µg/mL; in assay [5] it was more than 64 µg/mL; in [6] it was more than 64 µg/mL. The MIC in assay [7], in assay [8] and in assay [9] was more than 64 µg/mL in each case.
For `COc1cc(/C=C/C(=O)c2ccc(Nc3nc4ccccc4o3)cc2)cc(OC)c1OC`, the MIC in assay [2] is more than 64 µg/mL; in assay [3], more than 64 µg/mL; in assay [1], 8 µg/mL (≈ 18.6 µM); in assay [4] it was more than 64 µg/mL; in assay [5], more than 64 µg/mL; in assay [6], more than 64 µg/mL. The MIC in assay [7], in assay [8] and in [9] was more than 64 µg/mL each time.
For the compound `CN(C)c1ccc(/C=C/C(=O)c2ccc(Nc3nc4ccccc4o3)cc2)cc1`, the minimum inhibitory concentration (MIC) was more than 64 µg/mL in [2]; more than 64 µg/mL in assay [3]; 64 µg/mL (≈ 167 µM) in [1]; more than 64 µg/mL in assay [4]; more than 64 µg/mL in assay [5]; more than 64 µg/mL in assay [6]. In addition, the MIC in assay [7], in [8] and in assay [9] was more than 64 µg/mL each time.
With `O=C(/C=C/c1ccccn1)c1ccc(Nc2nc3ccccc3o2)cc1`, the MIC in [2] was more than 64 µg/mL; in assay [3] it was more than 64 µg/mL; in assay [1] it was 4 µg/mL (≈ 11.7 µM); in [4], more than 64 µg/mL; in assay [5] it was more than 64 µg/mL; in [6], more than 64 µg/mL. The MIC in [7], in assay [8] and in [9] was more than 64 µg/mL in each case.
Regarding `COc1ccc(/C=C/C(=O)c2ccc(Nc3nc4ccccc4o3)cc2)c(OC)c1OC`, the minimum inhibitory concentration (MIC) in assay [2] was more than 64 µg/mL; in assay [3], more than 64 µg/mL; in [1] it was 16 µg/mL (≈ 37.2 µM); in assay [4], more than 64 µg/mL; in [5] it was more than 64 µg/mL; in assay [6], more than 64 µg/mL. Further, the MIC in assay [7], in [8] and in assay [9] was more than 64 µg/mL throughout.
`CC[C@@H](CO)NCCN[C@@H](CC)CO` [ETHAMBUTOL]: the MIC in assay [1] came to 2 µg/mL (≈ 9.79 µM).
`COc1ccc(OC)c(C(=O)/C=C/c2ccc3nccnc3c2)c1`: in [1], the MIC was 3.13 µg/mL (≈ 9.77 µM).
Still for that read-out and setting: next, `CN[C@@H]1[C@H](O[C@H]2[C@H](O[C@H]3[C@H](O)[C@@H](O)[C@H](N=C(N)N)[C@@H](O)[C@@H]3N=C(N)N)O[C@@H](C)[C@]2(O)C=O)O[C@@H](CO)[C@H](O)[C@H]1O` [STREPTOMYCIN]: 1 µg/mL (≈ 1.72 µM).
